Measurements as given in patent US12336537B2, “Fungicidal compositions” (SYNGENTA CROP PROTECTION AG, priority 2020, dated 2025).

Columns and labels:
[1] = tested on: Puccinia recondita f. sp. tritici; conditions: in Triticum aestivum, foliar, read-out: control of Puccinia recondita f, sp. tritici
Procedure: Example A10: Puccinia recondita f. sp. tritici/Wheat/Leaf Disc Preventative (Brown Rust)
Wheat leaf segments cv. Kanzler are placed on agar in multiwell plates (24-well format) and sprayed with the formulated test compound diluted in water. The leaf disks are inoculated with a spore suspension of the fungus 1 day after application. The inoculated leaf segments are incubated at 19° C. and 75% rh under a light regime of 12 h light/12 h darkness in a climate cabinet and the activity of a compound is assessed as percent disease control compared to untreated when an appropriate level of disease damage appears in untreated check leaf segments (7-9 days after application).

[2] = tested on: Mycosphaerella arachidis (Cercospora arachidicola); test: Example A7: Mycosphaerella arachidis (Cercospora arachidicola) / liquid culture (early leaf spot); format: cell-based; conditions: 4-5 days after application, compared to untreated control
[3] = tested on: Glomerella lagenarium (Colletotrichum lagenarium); test: Example A3: Glomerella lagenarium (Colletotrichum lagenarium) / liquid culture (anthracnose); format: cell-based; conditions: Colletotrichum orbiculare, 3-4 days after application, compared to untreated control

Row | SMILES | pest or weed control at 200 ppm [1] [%] | inhibition of growth at 20 ppm [2] [%] | inhibition of growth at 20 ppm [3] [%]
1 | Cc1sc(N(C#N)c2cc(F)nc(F)c2)nc1C(=O)NC1CCC1 [X.02, 2-[cyano-(2,6-difluoro-4-pyridyl)amino]-N-cyclobutyl-5-methyl-thiazole-4-carboxamide] | ≥ 80 | – | –
2 | Cc1sc(N(C#N)c2cc(F)cc(F)c2)nc1C(=O)NC1CCC1(C)C (stereo not drawn) [X.03, 2-(N-cyano-3,5-difluoro-anilino)-N-(2,2-dimethylcyclobutyl)-5-methyl-thiazole-4-carboxamide] | ≥ 80 | – | –
3 | Cc1sc(N(C#N)c2cc(F)nc(F)c2)nc1C(=O)NC1CCC1(C)C (stereo not drawn) [X.05, 2-[cyano-(2,6-difluoro-4-pyridyl)amino]-N-(2,2-dimethylcyclobutyl)-5-methyl-thiazole-4-carboxamide] | ≥ 80 | – | –
4 | Cc1sc(N(C#N)c2cc(F)nc(F)c2)nc1C(=O)NC1CCC12CCCC2 (stereo not drawn) [X.07, 2-[cyano-(2,6-difluoro-4-pyridyl)amino]-5-methyl-N-spiro[3.4]octan-3-yl-thiazole-4-carboxamide] | ≥ 80 | – | –
5 | Cc1sc(N(C#N)c2cc(F)nc(F)c2)nc1C(=O)NC1CCC12Cc1ccccc1C2 (stereo not drawn) [X.08, 2-[cyano-(2,6-difluoro-4-pyridyl)amino]-5-methyl-N-spiro[cyclobutane-2,2′-indane]-1-yl-thiazole-4-carboxamide] | ≥ 80 | – | –
6 | Cc1sc(N(C#N)c2cc(F)nc(F)c2)nc1C(=O)NC1CCC12CCC2 (stereo not drawn) [X.09, 2-[cyano-(2,6-difluoro-4-pyridyl)amino]-5-methyl-N-spiro[3.3]heptan-3-yl-thiazole-4-carboxamide] | ≥ 80 | – | –
7 | Cc1sc(N(C#N)c2cc(F)nc(F)c2)nc1C(=O)NCC1(CC2CC2)CC1 [X.10, 2-[cyano-(2,6-difluoro-4-pyridyl)amino]-N-[[1-(cyclopropylmethyl)cyclopropyl]methyl]-5-methyl-thiazole-4-carboxamide] | ≥ 80 | – | –
8 | Cc1sc(N(C#N)c2cc(F)cc(F)c2)nc1C(=O)NC1(C)CCCC1 [X.11, 2-(N-cyano-3,5-difluoro-anilino)-5-methyl-N-(1-methylcyclopentyl)thiazole-4-carboxamide] | ≥ 80 | – | –
9 | Cc1sc(N(C#N)c2cc(F)nc(F)c2)nc1C(=O)NC1(C)CCCC1 [X.12, 2-[cyano-(2,6-difluoro-4-pyridyl)amino]-5-methyl-N-(1-methylcyclopentyl)thiazole-4-carboxamide] | ≥ 80 | – | –
10 | CCCCCCNC(=O)c1nc(N(C#N)c2cc(F)nc(F)c2)sc1C [X.14, 2-[cyano-(2,6-difluoro-4-pyridyl)amino]-N-hexyl-5-methyl-thiazole-4-carboxamide] | ≥ 80 | – | –
11 | Cc1sc(N(C#N)c2cc(F)nc(F)c2)nc1C(=O)NCC(C)C [X.15, 2-[cyano-(2,6-difluoro-4-pyridyl)amino]-N-isobutyl-5-methyl-thiazole-4-carboxamide] | ≥ 80 | ≥ 80 | –
12 | Cc1sc(N(C#N)c2cc(F)nc(F)c2)nc1C(=O)NC(C)c1ccccc1 (stereo not drawn) [X.16, 2-[cyano-(2,6-difluoro-4-pyridyl)amino]-5-methyl-N-(1-phenylethyl)thiazole-4-carboxamide] | ≥ 80 | – | –
13 | Cc1sc(N(C#N)c2cc(F)nc(F)c2)nc1C(=O)NCC(C)(C)C [X.18, 2-[cyano-(2,6-difluoro-4-pyridyl)amino]-N-(2,2-dimethylpropyl)-5-methyl-thiazole-4-carboxamide] | ≥ 80 | – | –
14 | CCCCCNC(=O)c1nc(N(C#N)c2cc(F)nc(F)c2)sc1C [X.20, 2-[cyano-(2,6-difluoro-4-pyridyl)amino]-5-methyl-N-pentyl-thiazole-4-carboxamide] | ≥ 80 | – | ≥ 80
15 | Cc1sc(N(C#N)c2cc(F)nc(F)c2)nc1C(=O)NCc1ccccc1 [X.23, N-benzyl-2-[cyano-(2,6-difluoro-4-pyridyl)amino]-5-methyl-thiazole-4-carboxamide] | ≥ 80 | – | –
16 | CCCCNC(=O)c1nc(N(C#N)c2cc(F)nc(F)c2)sc1C [X.24, N-butyl-2-[cyano-(2,6-difluoro-4-pyridyl)amino]-5-methyl-thiazole-4-carboxamide] | ≥ 80 | – | –
